ChEMBL document CHEMBL4483862, “Open-source discovery of chemical leads for next-generation chemoprotective antimalarials” (2018)

Tested on: Plasmodium berghei
Test: Luciferase/luciferin-expressing antifolate-resistant parasites were used to infect a culture of HepG2 cells that were pre-incubated with compounds. Infected hepatocytes emit light due to the luciferase reaction. Assay results are presented as the percent inhibition of light emission compared to control. […]
Assay type: functional
Conditions: sporozoite; for IC90: read-out: LUCIFERASE INFECTION ASSAY - IC90
[1] = read-out: LUCIFERASE INFECTION ASSAY - IC50

SMILES | IC90 | IC50 [1] | also measured
CCN(C(=O)CSc1nc2ccccc2c(=O)n1-c1ccc(C(C)C)cc1)c1cccc2ccccc12 | 9.59 µM | – | IC50 (FFLUC_HILL_SLOPE 12.2, FFLUC_R_SQUARED 0.564, PBLUC_HILL_SLOPE 2.95, PBLUC_R_SQUARED 0.421, read-out: LUCIFERASE INFECTION ASSAY - IC50): 4.55 µM
C[C@H](Nc1ccc(C(F)(F)F)cc1[N+](=O)[O-])C(=O)Nc1nc2ccccc2[nH]1 | 6.29 µM | – | IC50 (PBLUC_HILL_SLOPE 74.9, PBLUC_R_SQUARED 0.587, read-out: LUCIFERASE INFECTION ASSAY - IC50): 6.11 µM
CC(C)(C)c1ccc(NC(=O)c2cc(-c3ccccc3)ncn2)cc1 | > 9.96 µM | – | IC50 (PBLUC_HILL_SLOPE 1.26, PBLUC_R_SQUARED 0.612, read-out: LUCIFERASE INFECTION ASSAY - IC50): 2.29 µM
Cc1cccc(/C=C2\SC(=O)N(CCC(=O)Nc3ccc(-c4nnc5n4CCCCC5)cc3)C2=O)c1 | > 10 µM | > 10 µM | –
CCOC(=O)c1[nH]c(C)c(C(=O)/C=C/c2c(C)nn(-c3ccc(F)cc3)c2Cl)c1C | 0.643 µM | – | IC50 (HEPG2TOX_HILL_SLOPE 1.33, HEPG2TOX_R_SQUARED 0.905, PBLUC_HILL_SLOPE 0.748, PBLUC_R_SQUARED 0.781, read-out: LUCIFERASE INFECTION ASSAY - IC50): 0.0341 µM
CC(C)CN(C(=O)COC(=O)/C=C/c1nc2ccccc2s1)c1c(N)n(Cc2ccccc2)c(=O)[nH]c1=O | 3.98 µM | 3.46 µM | –
CN(C1CCCCC1)S(=O)(=O)c1cccc(C(=O)Nc2ccc(S(=O)(=O)NCc3ccco3)cc2)c1 | 1.72 µM | – | IC50 (HEPG2TOX_HILL_SLOPE 1.16, HEPG2TOX_R_SQUARED 0.836, PBLUC_HILL_SLOPE 2.1, PBLUC_R_SQUARED 0.409, read-out: LUCIFERASE INFECTION ASSAY - IC50): 0.606 µM
CC(C)Cn1c(N)c(C(=O)CSc2nnc(COc3ccccc3Cl)o2)c(=O)n(C)c1=O | 3.85 µM | 3.28 µM | –
CNc1nc2cnc(Nc3ccc(SC)cc3)cc2n1Cc1ccc(OC)c(OC)c1 | > 10 µM | > 10 µM | –
Cc1cc[n+](CC(=O)Nc2ccc(Br)c(C)c2)cc1 | > 10 µM | – | IC50 (HEPG2TOX_HILL_SLOPE 5.04, HEPG2TOX_R_SQUARED 0.103, PBLUC_HILL_SLOPE 18.3, PBLUC_R_SQUARED 0.0767, read-out: LUCIFERASE INFECTION ASSAY - IC50): 9.35 µM
Cc1cc(C)cc(C(=O)N(CC2CCCO2)c2nc3ccccc3s2)c1 (stereo not given) | > 10 µM | – | IC50 (FFLUC_HILL_SLOPE 16.6, FFLUC_R_SQUARED 0.205, read-out: LUCIFERASE INFECTION ASSAY - IC50): > 10 µM
O=C(CC(NC(=O)c1ccccc1Cl)c1ccccc1)Oc1ccc2c(c1)OCO2 (stereo not given) | > 10 µM | > 10 µM | –
Cc1ccc(NC(=O)NC(=O)c2c(-c3snnc3C)noc2C)cc1 | > 9.23 µM | – | IC50 (HEPG2TOX_HILL_SLOPE 1.11, HEPG2TOX_R_SQUARED 0.954, PBLUC_HILL_SLOPE 1.54, PBLUC_R_SQUARED 0.355, read-out: LUCIFERASE INFECTION ASSAY - IC50): 2.53 µM
COc1ccc(-c2nn(-c3ccccc3)cc2C(=O)Nc2cc(C(F)(F)F)ccc2N2CCCCC2)cc1 | > 10 µM | > 10 µM | –
CC(=O)Nc1ccccc1OS(=O)(=O)c1ccc(N2CCCC2=O)cc1 | 1.38 µM | – | IC50 (HEPG2TOX_HILL_SLOPE 1.61, HEPG2TOX_R_SQUARED 0.866, PBLUC_HILL_SLOPE 5.07, PBLUC_R_SQUARED 0.799, read-out: LUCIFERASE INFECTION ASSAY - IC50): 0.894 µM
COc1ccc(-c2cnc3sc(NCCc4ccncc4)nn23)cn1 | > 9.36 µM | > 9.36 µM | –
CC(=O)Nc1ccc(/C=C2\COc3c(Cl)cc(Cl)cc3C2=O)cc1 | > 10 µM | – | IC50 (FFLUC_HILL_SLOPE 4.35, FFLUC_R_SQUARED 0.359, read-out: LUCIFERASE INFECTION ASSAY - IC50): > 10 µM
Cc1cc(C(=O)Cn2c(CO)nc3ccccc32)c(C)n1-c1ccccc1 | > 10 µM | – | IC50 (HEPG2TOX_HILL_SLOPE 1.51, HEPG2TOX_R_SQUARED 0.587, PBLUC_HILL_SLOPE 1.38, 1.35, PBLUC_R_SQUARED 0.541, 0.883, read-out: LUCIFERASE INFECTION ASSAY - IC50): 3.87 µM
COc1ccc(Nc2nccc3nc(-c4cccc(OC(F)(F)F)c4)[nH]c23)cc1OC | > 10 µM | 3.54 µM | –
CCCCNC(=O)c1c(NC(=O)c2ccccc2C)nc2ccc(C)cn12 | > 9.05 µM | 6.48 µM | –
O=C(Nc1cccc(Cl)c1)Nc1csc([N+](=O)[O-])c1 | 9.45 µM | – | IC50 (HEPG2TOX_HILL_SLOPE 11, HEPG2TOX_R_SQUARED 0.423, PBLUC_HILL_SLOPE 4.17, PBLUC_R_SQUARED 0.367, read-out: LUCIFERASE INFECTION ASSAY - IC50): 5.58 µM
c1ccc(-c2csc3nc(-c4ccccn4)nc(Sc4nnc(-c5ccco5)o4)c23)cc1 | > 10 µM | > 10 µM | –
Cc1ccc(NC(=S)N/N=C2\C(=O)Nc3ccc([N+](=O)[O-])cc32)cc1 | > 10 µM | – | IC50 (PBLUC_HILL_SLOPE 14.8, PBLUC_R_SQUARED 0.511, read-out: LUCIFERASE INFECTION ASSAY - IC50): 8.89 µM
O=[N+]([O-])c1ccc(-c2nnc(SCc3c(Cl)cccc3Cl)s2)o1 | > 8.5 µM | – | IC50 (FFLUC_HILL_SLOPE 3.16, FFLUC_R_SQUARED 0.676, read-out: LUCIFERASE INFECTION ASSAY - IC50): > 8.5 µM
Nc1c(-c2ccccc2)[nH]c2ccccc12 | > 15.8 µM | > 15.8 µM | –
